Assay results published in patent US20210236438A1, “COMPOUNDS AND METHODS FOR THE TREATMENT OF AUTISM SPECTRUM DISORDER AND OTHER NEUROLOGICAL OR PSYCHIATRIC DISORDERS” (Tufts Medical Center, Inc., priority 2018, published 2021).
Entries after “also recorded” stand apart in the source; their conditions may differ.

Experiments:
[1] = ip or oral administration; U.S. Pat. No. 3,995,061; cited from earlier work
[2] = U.S. Pat. No. 3,995,061; cited from earlier work
[3] = tested on: vascular endothelial growth factor (VEGF); conditions: Jeong et al. 2011; cited from earlier work
[4] = tested on: glucose transporter 1 (GLUT-1); conditions: Jeong et al. 2011; cited from earlier work
hnRNP L [5] = conditions: Kang et al. 2006, cited from earlier work
GADPH = experiment: Western blot of control protein level in ascochlorin-treated rat embryonic cortical neurons; format: cell-based
Excerpt: (§1) Compounds that modify hnRNP L levels therefore hold promise as lead structures for the development of ASD/mental retardation/neurological disorders.

BIN1 = conditions: human osteosarcoma cells (U2OS), proteome analysis, Kang et al. 2006; cited from earlier work
hnRNP L [6] = experiment: Western blot of hnRNP L level in ascochlorin-treated cultured rat primary cortical neurons; format: cell-based; conditions: rat embryonic/primary cortical neurons, hnRNP L 60 KDa
Excerpt: as §1

Row | Structure (SMILES) | toxicity as assessed by LD50 [1] | tolerability in clinical trials [2] | expression of VEGF [3] | expression of GLUT-1 [4] | hnRNP L protein levels in vitro (in words) (hnRNP L [5]; U2OS osteosarcoma cells) | increase in hnRNP L protein level (hnRNP L [5]; human osteosarcoma cells (U2OS), proteome analysis) [×] | level of the control protein (GADPH 40 KDa) (GADPH) | increase in BIN1 protein level (BIN1) [×] | level of hnRNP L (hnRNP L [6])
1 | CCOc1c(Cl)c(C)c(C=O)c(O)c1C/C=C(C)/C=C/C1(C)C(C)CCC(=O)C1C (stereo not shown) [4-O-ethyl-ascochlorin] | low toxicity | – | – | – | – | – | – | – | –
2 | COc1c(Cl)c(C)c(C=O)c(O)c1C/C=C(C)/C=C/[C@@]1(C)[C@H](C)CCC(=O)[C@@H]1C [MAC, 4-O-methylascochlorin] | low toxicity | well tolerated | increases the expression | increases the expression | – | – | – | – | –
3 | CC(/C=C/[C@@]1(C)[C@H](C)CCC(=O)[C@@H]1C)=C\Cc1c(O)c(Cl)c(C)c(C=O)c1O [ascochlorin] | – | – | – | – | increase hnRNP L protein levels in vitro | 12 | does not affect the level of the control protein | 10 | increases the level of hnRNP L; also recorded: increase hnRNP L levels in neurons; also recorded: increased levels of hnRNP L
